“Also recorded” adds a separate entry of the source.
What was measured:
Format in all cases: in vivo
C57B/6 mice [1] = test: Whole gut transit time (WGTT), carmine red gavage; settings: 1, 3 and 10 mg/kg by gavage in 50% propylene glycol; statistically significant at all doses
Protocol: Dose responses of the effect of Compound 1 on the whole gut transit time (WGTT) were examined. Compound 1 (0, 1, 3 and 10 mg/kg) in 50% propylene glycol was administrated by gavage (5 ml/kg), followed by gavage of 0.2 ml carmine red solution (6% carmine red in 0.5% methylcellulose) into C57B/6 mice. Mice were then placed in a white cardboard box and the time was recorded as time 0. The color of stool was observed every 10 min until the red dye appeared in stool. The time that first red stool appears was recorded as the ending time. The difference between the ending time and time 0 is used to present WGTT (min).

C57B/6 mice [2] = test: Distal colon transit time (DCTT), glass bead expulsion; settings: 3 mg/kg gavage
Protocol: We examined the time course of Compound 1 on distal colon transit time (DCTT) in C57B/6 mice to assess the colon motility. DCTT was performed by gently pushing a 2 mm glass bead into rectal 2 cm and then placing the mouse into a white box (time 0). The time that the glass bead was released from rectal is presented as DCTT (min). Mice were gavaged with 0 or 3 mg/kg of Compound 1 and DTCC was conducted at 30, 60, 90 and 120 min after the administration of Compound 1. […] The increase in the DCTT reached a peak at 90 min and returned at 2 hours after the administration of Compound 1 (FIG. 2).

[3] = Stool composition (total stool weight, water content); settings: stools collected for 3 hours
Protocol: After gavage of Compound 1 (3 and 10 mg/kg), stools were collected immediately after expulsion for 3 hours. The wet stools were weighted as total stool weight followed by dry at 65° C. for 24 hours and weight as dry stool weight. The percent of water content in the stool was calculated by (total stool weight-dry stool weight)/total stool weight x 100.

IBS mice = test: Pain sensitivity in IBS mouse model (VMR to colorectal distension)
Protocol: IBS visceral pain model, induced by neonatal rectal irritation. Colonic pain sensitivity to graded colorectal balloon distension (CRD, 15, 30, 50 and 70 mmHg) was determined by visceromotor response (VMR) measured by electromyography of external oblique muscle.

[4] = Measurement of brain and plasma levels by LC/MS; settings: mice, 10 mg/kg oral gavage, after 30 minutes
Protocol: Compound 1 was administered to 5 mice at a dose of 10 mg/kg as a solution in 50% propylene glycol by oral gavage (5 ml/kg), After 30 minutes, mice were sacrificed and plasma and brain were harvested. The concentration of Compound 1 in plasma and brain were measured by LC/MS.

SMILES: O=C(O)c1nc2n(n1)-c1ccc(Cl)cc1C(c1ccccc1F)=NC2 [Compound 1, 8-Chloro-6-(2-fluorophenyl)-4H-[1,2,4]triazolo[1,5-a][1,4]benzodiazepine-2-carboxylic acid]
- effect on whole gut transit time (WGTT) (C57B/6 mice [1]): dose-dependently increased WGTT
- time at which DCTT returned after administration (C57B/6 mice [2]): 2 h
- time at which the increase in DCTT reached a peak (C57B/6 mice [2]): 90 min
- effect on distal colon transit time (DCTT) (C57B/6 mice [2]; as early as 30 min after gavage): significantly increased the DCTT
- effect on percent of water content in the stool ([3]; 3 mg/kg gavage): not
- effect on total stool weight ([3]; 3 mg/kg gavage): not
- effect on percent of water content in the stool ([3]; 10 mg/kg gavage): significantly reduced
- effect on total stool weight ([3]; 10 mg/kg gavage): significantly reduced
- effect on hyperalgesia (VMR to CRD) (IBS mice; IBS mice, 10 mg/kg, Two-Way ANOVA): significantly attenuated the hyperalgesia; also recorded: significantly reduced
- effect on pain sensitivity (VMR to CRD) (IBS mice; control mice, 10 mg/kg (data not shown)): no effect was observed
- average plasma concentration [4]: 1061+189 nM
- concentration at 30 min ([4]; mouse, brain, limit of quantitation 62.5 nM): < 62.5 nM

— patent US10844070B2, “Peripherally restricted GABA positive allosteric modulators for the treatment of irritable bowel syndrome and other ailments of the peripheral nervous system” (The Johns Hopkins University, priority 2014, dated 2020)
